Laboratory results from the COVID Moonshot data (paper PMC11187573), “Identification of SARS-CoV-2 Mpro inhibitors through deep reinforcement learning for de novo drug design and computational chemistry approaches” (RSC Medicinal Chemistry, 2024).

Columns and labels:
[1] = target: SARS-CoV-2 Main Protease (SARS-CoV-2) (UniProt P0DTD1)
[2] = target: SARS-CoV-2 Main Protease (SARS-CoV-2) (UniProt P0DTD1); remark: listed apart in the source

Row | SMILES | inhibition ([1]; 20.0 µM) [%] | inhibition ([1]; 50.0 µM) [%] | inhibition ([2]; 50.0 µM) [%] | relative solubility at 20 uM | relative solubility at 100 uM | IC50 [2] [µM] | inhibition ([2]; 20.0 µM) [%]
1 | Cc1ccncc1NC(=O)CC1CCCNC1 (stereo unspecified) | -1.91 | 16.7 | 0 | 1 | 1 | – | –
2 | Nc1cccc(C2CN(C(=O)CCl)Cc3ccccc32)c1 (stereo unspecified) | 48 | 53.4 | 100 | 0.97 | 0.96 | 11.4 | –
3 | CC1CCCC(OCc2cccc(NC(=O)NC(C)c3ccn[nH]3)c2)C1 (stereo unspecified) | – | -40.1 | 0 | 1 | 0.85 | – | 0
4 | O=C(Cc1c[nH]c2ncccc12)N(Cc1c(F)cccc1Cl)c1ccc2[nH]c(=O)[nH]c2c1 | 6.29 | -1.08 | 12.4 | 0.95 | 0.88 | – | –
5 | CNS(=O)(=O)Cc1ccc2[nH]cc(CCN(C)C)c2c1 | 4.66 | 2.38 | – | 1 | 1 | – | 0
6 | O=C(c1cc(=O)[nH]c2ccccc12)N1CCN(c2ccccc2F)CC1 | 50.7 | 75.6 | 46.4 | 0.98 | 0.99 | – | –
7 | C=CC(=O)N(c1ccc(C(C)(C)C)cc1)C(C(=O)NC(C)(C)C)c1cncc(C(C)(F)F)c1 (stereo unspecified) | -11.5 | -15.5 | 0 | 0.99 | 0.96 | – | 0
8 | O=C(NCc1ccno1)c1ccccc1OC1CCCCC1 | 4.09 | 5.82 | – | 1 | 1 | – | 0
9 | CC(NC(=O)c1ccccc1OC1CCCCC1)c1cnccn1 (stereo unspecified) | – | 11.2 | 0 | 1 | 1 | – | 0
10 | Cc1cc(-c2nc3ccccc3[nH]2)ccc1O | -10.3 | -36.8 | -3.73 | 0.99 | 1 | – | –
11 | CC(NC(=O)c1ccc2cn[nH]c2c1)C(=O)Nc1ccc(-n2cnc3ccccc32)cc1 (stereo unspecified) | 13 | 3.73 | 12.8 | 0.7 | 0.51 | – | –
12 | C=CC(=O)N(c1ccc(C2(C)CC2)cc1)C(C(=O)NC(C)(C)C)c1cccnc1 (stereo unspecified) | – | -13.5 | 10.1 | 1 | 1 | – | 0
13 | Cc1nnc(CC(=O)Nc2cccnc2)s1 | -1.16 | -0.0294 | 0 | 1 | 0.99 | – | -1.82
14 | CNC(=O)OC1CCN(C(=O)c2ccncc2)CC1 | – | -25.3 | 2.15 | 1 | 1 | – | 0.65
15 | CN(Cc1ccc(OCc2cccs2)cc1)C(=O)Cn1nnc2ccccc21 | 2.49 | 10.2 | – | 0.56 | -0.05 | – | 0
16 | C=CC(=O)N(c1ccc(C(C)OC)cc1)C(C(=O)Nc1c(C)cccc1CC)c1cccnc1 (stereo unspecified) | 5.9 | 3.94 | – | 0.96 | 0.87 | – | 0
17 | Cc1cc(Br)cc2c1N(CCBr)C(=O)C2=O | -3.94 | -4.22 | 95.6 | 1 | 1 | 16.7 | –
18 | CC1(C)Cc2cccc(OCCNC(=O)c3cc(=O)[nH]c4ccc(F)cc34)c2O1 | 13.9 | 23.7 | 42 | 0.98 | 0.84 | – | –
19 | COc1ccncc1NC(=O)C(C)(C)c1cc(F)cc(C#N)c1 | 20 | 30.8 | 40.6 | 0.99 | 1 | – | –

Row | SMILES | inhibition ([1]; 20.0 µM) [%] | inhibition ([1]; 50.0 µM) [%] | inhibition ([2]; 50.0 µM) [%] | relative solubility at 20 uM | relative solubility at 100 uM | IC50 [2] [µM] | inhibition ([2]; 20.0 µM) [%]
20 | N#Cc1cc(CN2CCN(C(=O)CCl)CC2)c2ccccc2c1 | 83.6 | 93.1 | – | 0.85 | 0.79 | 1.16 | 97.6
21 | O=C(Cc1cccc(Cl)c1)Nc1nncs1 | -9.94 | -3.05 | 0 | 1 | 0.78 | – | –
22 | C=CC(=O)Nc1cc(C(=O)NC[C@H](Cc2ccccc2)c2ccccn2)ccc1O (stereo in doubt) | 0.684 | 9.48 | – | 0.83 | 0.82 | – | 0
23 | COc1ccccc1OCCN(C)C(=O)c1cc(=O)[nH]c2ccc(Cl)cc12 | 0.453 | 4.43 | 0 | 1 | 0.99 | – | –
24 | Cc1cccc(C)c1OCC(=O)N[C@@H](Cc1ccccc1)[C@@H](O)C[C@H](Cc1ccccc1)NC(=O)[C@H](C(C)C)N1CCCNC1=O (stereo in doubt) | 7.22 | 13 | – | 0.83 | 0.53 | – | 0
25 | C#Cc1ccc(CNC(=O)N2CCOCC2)cc1 | 1.4 | 2.46 | 0 | 1 | 1 | – | 0
26 | C=CC(=O)N(c1ccc(C(C)(C)C)cc1)C(C(=O)Nc1cccc(F)c1C)c1cccnc1 (stereo unspecified) | – | -14.8 | 0 | 1 | 0.98 | – | 0
27 | C=CC(=O)N(c1ccc2ncsc2c1)C(C(=O)Nc1cccc(CC)c1)c1cccnc1 (stereo unspecified) | 33.9 | 59.3 | – | 0.8 | 0.63 | 32 | 16.6
28 | C=CC(=O)N(c1ccc(C(C)(C)C)cc1)C(C(=O)Nc1ccc(OC)nc1)c1cccnc1 (stereo unspecified) | 1.08 | 13.4 | 0 | 1 | 1 | – | 0
29 | C=CC(=O)N(C(C(=O)NC(C)(C)C)c1cccnc1)C1CC12CC(C)(C)C2 (stereo unspecified) | 13 | 15.5 | 3.54 | 1 | 0.99 | – | –
30 | C=CC(=O)N(C(C(=O)NC(C)(C)C)c1cccnc1)[C@@H]1C[C@@H]1c1ccccc1 (stereo in doubt) | -14.4 | -6.46 | – | 0.97 | 0.88 | – | 0
31 | Cc1ccnc(C)c1NC(=O)C(C)c1ccc(F)c(F)c1 (stereo unspecified) | -0.411 | -2.87 | 0 | 1 | 1 | – | –
32 | CS(=O)(=O)NCCc1cccc(O)c1 | -1.8 | 0.0445 | 1.46 | 1 | 1 | – | -2.45
33 | C=CC(=O)N(c1ccc(C(C)(C)C)cc1)C(C(=O)NC1CCOCC1)c1cccnc1 (stereo unspecified) | 9.01 | 0.668 | 31.1 | 0.99 | 1 | – | 0.841
34 | C=CC(=O)N(c1ccc(C(C)(C)C)cc1)C(C(=O)NC(C)(C)C)c1cncc2ccccc12 (stereo unspecified) | -17.7 | -17.5 | 0 | 0.85 | 0.56 | – | 0
35 | O=C(NCCNc1ccncc1)c1cccc(S(=O)(=O)Nc2ccccc2-c2ccccc2)c1 | -20.4 | -32.8 | -3.32 | 0.95 | 0.94 | – | –
36 | Cc1[nH]c2ccccc2c1/C=N/N(C)C(=O)c1ccc2c(c1)OCO2 | 2.2 | -13.4 | -6.66 | 0.78 | 0.77 | – | –
37 | C=CC(=O)N(c1ccc2ncsc2c1)C(C(=O)Nc1ccc(OC)cc1C)c1cccnc1 (stereo unspecified) | 3.21 | 11.3 | – | 0.94 | 0.92 | – | 0
